pEC50, pIC50: −log10 of the molar value. Values joined by “and” are separate entries in the source; they are usually repeats but may differ in a detail not shown here. Equal entries are not always repeated. Where two headings read alike, the source gives them in different places.
Assays:
[1] = target: T1, MKK7 (Homo sapiens, UniProt O14733); assay: In vitro kinase activity assay for MKK7 (Nanosyn); format: biochemical
T1 construct: purchased Nanosyn (contract assay)
T1 sequence (O14733 1-419): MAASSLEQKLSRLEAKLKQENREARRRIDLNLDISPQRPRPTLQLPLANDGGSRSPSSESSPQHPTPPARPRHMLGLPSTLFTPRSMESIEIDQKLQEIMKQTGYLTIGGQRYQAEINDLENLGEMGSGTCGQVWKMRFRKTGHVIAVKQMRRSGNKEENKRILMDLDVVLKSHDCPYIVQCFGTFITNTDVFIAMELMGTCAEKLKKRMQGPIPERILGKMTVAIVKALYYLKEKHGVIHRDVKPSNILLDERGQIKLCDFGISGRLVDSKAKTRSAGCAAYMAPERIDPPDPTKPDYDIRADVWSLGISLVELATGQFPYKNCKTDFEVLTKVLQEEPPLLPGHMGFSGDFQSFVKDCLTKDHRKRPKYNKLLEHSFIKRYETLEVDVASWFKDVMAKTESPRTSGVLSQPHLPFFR
Procedure: Based on visual inspection of the top 500 predictions, 10 compounds were selected for synthesis and testing (see, Table 1). The “Docking rank” is given in its respective run, whereas four virtual libraries of acrylamides were docked separately, based on the amine precursor for the acrylamide (primary or secondary aliphatic amines, primary or secondary aromatic amines). In vitro kinase activity assay was carried out by Nanosyn, as described below.
In Vitro Activity Assays for MKK7 or MKK4 (Carried by Nanosyn):
Exemplary test compounds, according to some embodiments of the present invention, were diluted in DMSO to a final concentration that ranged from 10 μM to 0.0565 nM, while final concentration of DMSO in all assays was kept at 1%. Reference compound, Staurosporine, was tested in a similar manner. […] After incubation, activity of now activated JNK1 was tested in the presence of 30 μM ATP ATP for 17 h (MKK7) or 4 h (MKK4).

[2] = Metabolic stability in dog liver microsomes; format: in vitro ADME; details: for half-life: dog, liver microsomes
Source text: A reference compound, REF1250, was used in this study: […]

[3] = test system: pJNK in HEK293 cells; assay: In-cell western (ICW) pJNK inhibition in HEK293; format: cell-based; details: 2 h pre-incubation, sorbitol stimulation
Procedure: HEK293, Beas2B and 3T3 cells were plated 24 hours before procedure on 384 well clear bottom black flat plates (Corning) pre-coated with Fibronectin (Sigma) diluted in PBS to a concentration of 5 μg/ml 45 minutes prior to cells introduction. Cells were plated using Multidrop™ Combi reagent dispenser (Thermo Fisher Scientific). Compound, reagents and antibody dispensing as well as washes were performed with a CyBio liquid handler (Analytik). Cells were pre-incubated with a small molecule or up to 1% DMSO for 2 h before fixation. HEK293, 3T3 or Beas2B cells were treated with 0.6M/0.2M/0.2M D-Sorbitol/PBS (Sigma) for 20/40/40 min. respectively, before fixation. Media was removed and wells were immediately fixed with 150 μl per well of 3.7% formaldehyde/PBS fixing solution for 20 min. Formaldehyde was then aspired and cells were permeabilized with 150 μl of 0.5% Triton x-100/PBS solution for 10 min. After aspiration cells were washed with ice-cold methanol and stored at −20° C., for 10 min. Methanol was aspired and cells were blocked with 150 μl blocking buffer (LICOR) for 90 min. Primary antibody Phospho-SAPK/JNK T183/Y185 (CST; 9251S) was diluted 1:1000 in blocking buffer and was applied 50 μl per well, except control wells to which only blocking buffer was applied, O.N. (16 h) at 4° C. with mild shaking. Primary antibody was aspired, wells were washed with 150 μl 0.1% Tween20/PBS (Sigma) washing solution three times for 7 min. IRDye® 800CW Goat anti-Rabbit IgG Secondary antibody (LICOR) was then diluted 1:1200 in blocking buffer with 50 μl applied per well on control wells only (no CellTag control), then CellTag700 (1:2000) was added to the solution and 50 μl were added to all experiment wells, for 1 h at room temperature. Wells were aspired and washed again with 150 μl 0.1% Tween20/PBS (Sigma) washing solution three times for 7 min. plate was dried and scanned with Odyssey CLx imaging system at 700 nm and 800 nm (Licor). Wells signals were analyzed with Odyssey software. The signal was normalized by the CellTag700 signal.
To rapidly assess the cellular activity (EC50) with full dose response curves of the MKK7 covalent inhibitors, according to some embodiments of the present invention, an in-cell western assay was adapted to a 384 well plate format over traditional western blot, and monitored phospho-JNK (pJNK) levels in response to osmotic shock. We first characterized the dynamics of pJNK in response to sorbitol. Sufficient dynamic range for pJNK is achieved at 20 minutes in HEK293 cells and at 40 minutes in 3T3 and Beas2B cells. The compound's activity was assessed by pre-treating cells with either compound or DMSO for 2 hours, followed by Sorbitol stimulation. The response of pJNK, and its substrates, pc-Jun and pATF2, was measured, as well as pP38, which is a substrate of MKK4 but not MKK7, and pERK in HEK293 cells, and the results are presented in Table 5 below.

[4] = target: MARK1 (MARK) (Homo sapiens, UniProt Q9P0L2); assay: Kinome selectivity screen MARK1; format: biochemical; details: 1 μM compound
Sequence of MARK1 (MARK) (Q9P0L2 whole entry): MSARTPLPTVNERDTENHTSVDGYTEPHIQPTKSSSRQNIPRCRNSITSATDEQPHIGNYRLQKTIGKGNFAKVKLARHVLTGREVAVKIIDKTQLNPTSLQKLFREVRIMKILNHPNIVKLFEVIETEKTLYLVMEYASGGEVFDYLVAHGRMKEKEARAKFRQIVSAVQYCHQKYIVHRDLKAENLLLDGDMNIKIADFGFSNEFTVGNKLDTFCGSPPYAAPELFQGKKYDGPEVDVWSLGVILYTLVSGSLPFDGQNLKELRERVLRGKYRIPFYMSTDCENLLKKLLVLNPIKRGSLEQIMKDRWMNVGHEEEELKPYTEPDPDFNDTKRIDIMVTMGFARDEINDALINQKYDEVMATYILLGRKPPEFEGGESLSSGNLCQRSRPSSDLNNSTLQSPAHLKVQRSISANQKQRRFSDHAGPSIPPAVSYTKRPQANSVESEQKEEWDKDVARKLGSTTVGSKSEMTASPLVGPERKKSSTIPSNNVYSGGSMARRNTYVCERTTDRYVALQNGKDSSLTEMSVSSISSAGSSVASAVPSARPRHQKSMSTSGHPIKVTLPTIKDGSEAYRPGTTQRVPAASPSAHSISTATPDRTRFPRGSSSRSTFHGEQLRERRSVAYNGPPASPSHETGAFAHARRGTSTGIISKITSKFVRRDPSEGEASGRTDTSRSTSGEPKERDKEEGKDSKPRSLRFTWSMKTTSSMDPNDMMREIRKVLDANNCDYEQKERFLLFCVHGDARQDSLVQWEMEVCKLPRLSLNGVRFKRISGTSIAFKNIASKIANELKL
Procedure: (§1) Kinome Selectivity Screen:
(§2) Kinase selectivity was assessed using the Life Technologies SelectScreen Kinase Profiling Service in a custom panel of 76 kinases selected to provide broad representative coverage of all kinase families. Kinase activity assays employed either the Z′-LYTE or Adapta assay technologies with ATP concentrations at or near the KM, ATP for each kinase and a test compound concentration of 1 μM.

[5] = target: MAP2K1 (MEK1) (Homo sapiens, UniProt Q02750); assay: Kinome selectivity screen MAP2K1; format: biochemical; details: 1 μM compound
Sequence of MAP2K1 (MEK1) (Q02750 whole entry): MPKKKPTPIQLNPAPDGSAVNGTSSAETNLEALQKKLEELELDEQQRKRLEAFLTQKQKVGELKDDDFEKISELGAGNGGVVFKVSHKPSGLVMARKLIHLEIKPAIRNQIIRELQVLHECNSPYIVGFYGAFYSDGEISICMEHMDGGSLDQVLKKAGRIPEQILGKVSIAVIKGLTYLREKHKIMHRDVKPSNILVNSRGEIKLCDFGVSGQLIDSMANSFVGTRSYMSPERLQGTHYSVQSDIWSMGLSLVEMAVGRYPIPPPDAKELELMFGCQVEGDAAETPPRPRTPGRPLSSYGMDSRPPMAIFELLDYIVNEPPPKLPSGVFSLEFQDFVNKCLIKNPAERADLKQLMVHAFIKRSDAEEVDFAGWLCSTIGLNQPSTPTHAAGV
Procedure: as §1, §2

[6] = target: DAPK3 (ZIPK) (Homo sapiens, UniProt O43293); assay: Kinome selectivity screen DAPK3; format: biochemical; details: 1 μM compound
Sequence of DAPK3 (ZIPK) (O43293 whole entry): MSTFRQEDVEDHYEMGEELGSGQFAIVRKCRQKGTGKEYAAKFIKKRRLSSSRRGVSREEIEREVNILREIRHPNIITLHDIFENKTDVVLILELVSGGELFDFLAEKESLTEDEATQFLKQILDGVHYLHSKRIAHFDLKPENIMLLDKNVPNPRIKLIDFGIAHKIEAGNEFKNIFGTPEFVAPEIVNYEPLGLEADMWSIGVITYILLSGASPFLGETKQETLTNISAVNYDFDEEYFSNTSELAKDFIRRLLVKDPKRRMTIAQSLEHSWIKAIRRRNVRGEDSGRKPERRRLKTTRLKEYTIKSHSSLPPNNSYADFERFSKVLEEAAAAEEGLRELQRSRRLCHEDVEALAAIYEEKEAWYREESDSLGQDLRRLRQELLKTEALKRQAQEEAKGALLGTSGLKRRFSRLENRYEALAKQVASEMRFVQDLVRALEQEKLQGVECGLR
Procedure: as §1, §2

[7] = target: EPHB1 (Homo sapiens, UniProt P54762); assay: Kinome selectivity screen EPHB1; format: biochemical; details: 1 μM compound
Sequence of EPHB1 (P54762 18-984): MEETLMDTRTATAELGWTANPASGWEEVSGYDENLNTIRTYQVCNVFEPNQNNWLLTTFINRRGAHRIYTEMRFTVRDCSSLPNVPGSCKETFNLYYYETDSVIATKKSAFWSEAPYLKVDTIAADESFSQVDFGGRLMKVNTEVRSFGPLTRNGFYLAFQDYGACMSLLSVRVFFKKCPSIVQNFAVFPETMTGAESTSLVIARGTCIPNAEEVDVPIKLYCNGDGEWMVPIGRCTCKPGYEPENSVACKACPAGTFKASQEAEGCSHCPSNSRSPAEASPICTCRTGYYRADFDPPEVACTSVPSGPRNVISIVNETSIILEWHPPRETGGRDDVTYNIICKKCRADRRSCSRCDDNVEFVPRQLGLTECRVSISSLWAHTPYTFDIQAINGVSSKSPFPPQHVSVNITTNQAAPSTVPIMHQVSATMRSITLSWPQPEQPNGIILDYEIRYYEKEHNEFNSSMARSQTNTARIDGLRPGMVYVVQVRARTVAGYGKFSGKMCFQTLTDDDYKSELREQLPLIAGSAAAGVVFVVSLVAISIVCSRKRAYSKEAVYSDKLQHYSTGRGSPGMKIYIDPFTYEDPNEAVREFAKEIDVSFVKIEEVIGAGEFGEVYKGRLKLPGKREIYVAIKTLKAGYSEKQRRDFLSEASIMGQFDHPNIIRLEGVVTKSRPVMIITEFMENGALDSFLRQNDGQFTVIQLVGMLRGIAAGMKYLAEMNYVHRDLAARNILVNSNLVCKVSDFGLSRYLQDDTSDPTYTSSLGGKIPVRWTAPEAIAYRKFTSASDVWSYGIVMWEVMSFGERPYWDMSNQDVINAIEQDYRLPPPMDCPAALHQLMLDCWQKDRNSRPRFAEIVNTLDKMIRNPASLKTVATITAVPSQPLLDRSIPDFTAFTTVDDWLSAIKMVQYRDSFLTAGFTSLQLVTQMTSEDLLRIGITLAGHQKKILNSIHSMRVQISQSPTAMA
Procedure: as §1, §2

[8] = target: FGFR1 (Homo sapiens, UniProt P11362); assay: Kinome selectivity screen FGFR1; format: biochemical; details: 1 μM compound
Sequence of FGFR1 (P11362 22-822): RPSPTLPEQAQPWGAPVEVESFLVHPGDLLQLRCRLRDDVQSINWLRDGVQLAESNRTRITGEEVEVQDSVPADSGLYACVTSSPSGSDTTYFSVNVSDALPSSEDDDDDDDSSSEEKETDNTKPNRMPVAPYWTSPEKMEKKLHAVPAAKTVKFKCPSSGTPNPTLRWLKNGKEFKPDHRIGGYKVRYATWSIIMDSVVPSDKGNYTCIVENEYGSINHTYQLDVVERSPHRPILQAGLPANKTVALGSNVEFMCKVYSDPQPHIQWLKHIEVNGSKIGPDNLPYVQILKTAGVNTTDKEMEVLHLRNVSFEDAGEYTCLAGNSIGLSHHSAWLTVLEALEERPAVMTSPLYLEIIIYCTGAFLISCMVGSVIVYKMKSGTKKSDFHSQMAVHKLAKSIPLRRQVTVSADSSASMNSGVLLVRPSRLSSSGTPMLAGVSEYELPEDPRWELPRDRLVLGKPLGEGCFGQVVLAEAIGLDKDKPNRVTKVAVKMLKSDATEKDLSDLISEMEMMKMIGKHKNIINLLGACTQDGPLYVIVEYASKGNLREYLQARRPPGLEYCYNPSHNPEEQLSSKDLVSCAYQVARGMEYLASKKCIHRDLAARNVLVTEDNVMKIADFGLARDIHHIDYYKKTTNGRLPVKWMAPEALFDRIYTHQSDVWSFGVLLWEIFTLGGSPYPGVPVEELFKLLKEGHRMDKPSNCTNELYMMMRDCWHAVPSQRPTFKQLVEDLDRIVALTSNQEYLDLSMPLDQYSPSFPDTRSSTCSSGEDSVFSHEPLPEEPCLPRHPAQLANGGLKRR
Procedure: as §1, §2

[9] = target: SRC (Homo sapiens, UniProt P12931); assay: Kinome selectivity screen SRC; format: biochemical; details: 1 μM compound
Sequence of SRC (P12931 whole entry): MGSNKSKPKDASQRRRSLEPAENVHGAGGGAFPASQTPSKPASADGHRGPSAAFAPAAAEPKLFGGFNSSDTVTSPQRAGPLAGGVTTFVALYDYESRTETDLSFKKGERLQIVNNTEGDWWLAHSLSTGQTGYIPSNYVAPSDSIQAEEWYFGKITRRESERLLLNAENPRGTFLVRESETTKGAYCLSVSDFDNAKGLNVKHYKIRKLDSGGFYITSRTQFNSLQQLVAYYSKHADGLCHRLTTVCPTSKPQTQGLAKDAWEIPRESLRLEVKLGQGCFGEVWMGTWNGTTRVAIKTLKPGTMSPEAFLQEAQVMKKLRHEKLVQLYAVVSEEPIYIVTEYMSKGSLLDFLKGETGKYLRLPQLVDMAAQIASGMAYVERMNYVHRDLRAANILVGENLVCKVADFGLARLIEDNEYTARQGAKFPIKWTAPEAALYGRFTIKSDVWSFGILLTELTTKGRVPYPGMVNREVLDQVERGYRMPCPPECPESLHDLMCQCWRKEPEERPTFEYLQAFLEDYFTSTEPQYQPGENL
Procedure: as §1, §2

[10] = target: LRRK2 FL (Homo sapiens, UniProt Q5S007); assay: Kinome selectivity screen LRRK2 FL; format: biochemical; details: 1 μM compound
Procedure: as §1, §2

[11] = target: EPHA2 (Homo sapiens, UniProt P29317); assay: Kinome selectivity screen EPHA2; format: biochemical; details: 1 μM compound
Sequence of EPHA2 (P29317 24-976): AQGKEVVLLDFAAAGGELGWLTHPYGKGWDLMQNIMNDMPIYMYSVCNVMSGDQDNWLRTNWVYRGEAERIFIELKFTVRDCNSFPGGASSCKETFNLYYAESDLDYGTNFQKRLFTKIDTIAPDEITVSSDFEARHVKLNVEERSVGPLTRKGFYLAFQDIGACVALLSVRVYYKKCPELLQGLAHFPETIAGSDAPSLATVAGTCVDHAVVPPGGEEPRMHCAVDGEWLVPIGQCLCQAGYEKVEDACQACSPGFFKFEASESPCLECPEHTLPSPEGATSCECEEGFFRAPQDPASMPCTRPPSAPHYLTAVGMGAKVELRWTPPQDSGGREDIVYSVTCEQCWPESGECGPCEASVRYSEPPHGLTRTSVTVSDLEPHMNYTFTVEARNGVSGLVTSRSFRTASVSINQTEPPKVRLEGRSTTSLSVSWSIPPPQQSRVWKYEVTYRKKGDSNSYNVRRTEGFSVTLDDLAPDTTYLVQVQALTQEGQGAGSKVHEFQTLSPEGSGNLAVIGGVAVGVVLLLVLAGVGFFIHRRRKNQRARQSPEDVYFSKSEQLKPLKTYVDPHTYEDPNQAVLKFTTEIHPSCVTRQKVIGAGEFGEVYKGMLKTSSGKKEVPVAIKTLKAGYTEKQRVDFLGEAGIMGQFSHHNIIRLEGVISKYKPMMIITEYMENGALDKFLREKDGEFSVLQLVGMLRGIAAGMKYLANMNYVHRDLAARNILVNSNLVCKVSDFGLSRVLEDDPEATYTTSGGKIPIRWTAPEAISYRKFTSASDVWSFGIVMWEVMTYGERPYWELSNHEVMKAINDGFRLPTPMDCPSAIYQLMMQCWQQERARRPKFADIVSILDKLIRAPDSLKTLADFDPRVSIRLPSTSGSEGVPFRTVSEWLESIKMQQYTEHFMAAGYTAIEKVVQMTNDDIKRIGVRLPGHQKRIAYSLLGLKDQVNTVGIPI
Procedure: as §1, §2

Row | pIC50 ([1]; read-out: MKK7 IC50 in vitro) | % remaining @ 40 min [2] [%] | half-life [2] [min] | inhibition at 1 µM [4] [%] | inhibition at 1 µM [5] [%] | inhibition at 1 µM [6] [%] | inhibition at 1 µM [7] [%] | inhibition at 1 µM [8] [%] | inhibition at 1 µM [9] [%] | inhibition at 1 µM [10] [%] | potency towards MKK7 compared with Aurora kinase ([1]; MKK7 nanomolar, Aurora kinase micromolar) | pIC50 ([1]; read-out: MKK7 IC50) | inhibition at 1 µM [11] [%] | SMILES | pEC50 ([3]; HEK293, ICW) | pEC50 ([3]; Homo sapiens, HEK293, HEK293, ICW)
1 | 7.96 | 0 | < 5 |  |  |  |  |  |  |  |  |  |  | C=CC(=O)Nc1cccc(-c2n[nH]c3c2CCCC3)c1 [GO4] | 5.28 | 
2 | 8.22 | 0 | < 5 | 14 | 4 | -3 | -4 | 2 | 10 | 91 | at least two orders of magnitude | 8.05 | -16 | C=CC(=O)Nc1cccc(-c2n[nH]c3ccccc23)c1 [GO32] | 5.69 | 
3 | 8.30 | 0 | < 5 | 4 | 4 | -2 | -2 | -2 | -4 | 86 |  |  | -13 | C=CC(=O)Nc1cccc(-c2n[nH]c3cc(C)ccc23)c1 [GO80] | 5.89 and 6.10 | 5.90
